Bridge positions count the residues as written; N and C are the ends. Square brackets hold non-standard residues; d marks the D form. Peptide text beside a SMILES is read from it. * marks the point of attachment. βGlcA(1-O-hexadecyl) = CCCCCCCCCCCCCCCCO[C@@H]1O[C@H](C(=O)*)[C@@H](O)[C@H](O)[C@H]1O; Aib = CC(C)(N)C(=O)O
What was measured:
db/db mice = test: Glucose-lowering activity in db/db mice; type: in vivo; details: for time for which elevated blood glucose level was reduced to the normal range: 250 nmol/kg subcutaneously at t=0 and 7 hr (FIG. 9)
Procedure: The 60 female db/db B6BKS (D) Leprdb/J (strain 000697) mice for this study were about 8-9 weeks old at arrival (Jackson Laboratory, Bar Harbor, Me.). […] One group of 8 female mice served as the vehicle control and received the vehicle, 0.2% BSA in saline, pH 7.4. One additional group of 8 female mice received the positive-control compound, liraglutide, at a dose level of 50 nmoles/kg. The test compounds, vehicle and positive-control compound were subcutaneously injected at a dose volume of 6 mL/kg on day 1 at about 0, 7 and 24 hours.
Clinical observations were conducted at receipt, prior to randomization, and daily from days 1 to 5. Body weights were measured and recorded at receipt, prior to randomization, and daily from days 1 to 5. Food consumption was measured and recorded daily from days 1 to 5. Blood samples for glucose analysis were collected pre-study (day −3) and at 0, 1, 2, 4, 8, 10, 24, 48, 72 and 96 hours following the first dose on day 1. At study termination all animals were euthanized, and the carcasses were discarded without further evaluation.

human GLP-1 receptor = target: T1, human GLP-1 receptor (Homo sapiens, UniProt P43220); test: DiscoveRx LeadHunter cellular assay, cAMP stimulation, GLP-1 receptor in CHO cells; type: cell-based; details: human GLP-1 receptor in CHO cells (DiscoveRx); read-out: EC50 cAMP GLP-1 R
T1 construct: host or cells: CHO cells
Procedure: (§1) A further series of cellular assays was carried out with standard cellular assays (DiscoveRx, LeadHunter assays) using readout of cAMP stimulation or arrestin activation. Compounds were weighed precisely in an amount of about 1 mg and shipped to DiscoveRx for dilution and assay.

human glucagon receptor = target: T2, human glucagon receptor (Homo sapiens, UniProt P47871); test: DiscoveRx LeadHunter cellular assay, cAMP stimulation, glucagon receptor in CHO cells; type: cell-based
T2 construct: host or cells: CHO cells
T2 sequence (P47871 26-477): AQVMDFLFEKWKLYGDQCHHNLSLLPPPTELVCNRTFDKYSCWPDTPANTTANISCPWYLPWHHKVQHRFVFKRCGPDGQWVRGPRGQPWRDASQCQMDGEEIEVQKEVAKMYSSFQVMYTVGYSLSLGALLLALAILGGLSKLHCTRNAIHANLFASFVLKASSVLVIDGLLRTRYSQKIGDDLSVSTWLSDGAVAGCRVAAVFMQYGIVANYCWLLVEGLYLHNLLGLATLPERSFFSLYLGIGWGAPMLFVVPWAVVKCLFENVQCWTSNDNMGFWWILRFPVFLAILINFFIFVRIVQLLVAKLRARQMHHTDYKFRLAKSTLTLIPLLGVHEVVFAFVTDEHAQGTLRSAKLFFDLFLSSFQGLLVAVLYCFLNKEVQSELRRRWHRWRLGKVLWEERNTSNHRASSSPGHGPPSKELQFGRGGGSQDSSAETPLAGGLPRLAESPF
Procedure: as §1

T1 sequence (P43220 24-463): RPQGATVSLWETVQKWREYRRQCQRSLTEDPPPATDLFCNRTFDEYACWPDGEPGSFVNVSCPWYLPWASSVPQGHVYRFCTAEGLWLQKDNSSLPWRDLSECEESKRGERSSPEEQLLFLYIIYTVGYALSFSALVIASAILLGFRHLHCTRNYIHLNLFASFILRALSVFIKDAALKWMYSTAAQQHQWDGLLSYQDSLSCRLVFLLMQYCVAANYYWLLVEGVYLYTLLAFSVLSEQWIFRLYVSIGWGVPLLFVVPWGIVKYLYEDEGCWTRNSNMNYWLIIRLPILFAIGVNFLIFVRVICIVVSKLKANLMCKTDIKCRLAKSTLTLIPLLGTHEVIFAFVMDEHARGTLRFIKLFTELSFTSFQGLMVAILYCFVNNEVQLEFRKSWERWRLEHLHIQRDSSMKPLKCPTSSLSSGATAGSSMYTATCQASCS

Row | SMILES | time for which elevated blood glucose level was reduced to the normal range (db/db mice; db/db mice) | db/db Mice-Mean Blood Glucose (mg/dL) 0 hr (db/db mice; dose 250 nmole/kg sc) [mg/dL] | db/db Mice-Mean Blood Glucose (mg/dL) 10 hr (db/db mice; dose 250 nmole/kg sc) [mg/dL] | db/db Mice-Mean Blood Glucose (mg/dL) 24 hr (db/db mice; dose 250 nmole/kg sc) [mg/dL] | db/db Mice-Mean Blood Glucose (mg/dL) 48 hr (db/db mice; dose 250 nmole/kg sc) [mg/dL] | other results
1 | CCCCCCCCO[C@@H]1O[C@H](C(=O)NCCCC[C@H](NC(=O)[C@@H](NC(=O)[C@H](Cc2ccccc2)NC(=O)[C@H](CCC(=O)O)NC(=O)[C@@H]2CCCCNC(=O)CC[C@H](NC(=O)[C@H](CC(=O)O)NC(=O)[C@H](CC(C)C)NC(=O)[C@H](Cc3ccc(O)cc3)NC(=O)[C@H](CCCCN)NC(=O)[C@H](CO)NC(=O)[C@H](Cc3ccc(O)cc3)NC(=O)[C@H](CC(=O)O)NC(=O)[C@H](CO)NC(=O)[C@@H](NC(=O)[C@H](Cc3ccccc3)NC(=O)[C@@H](NC(=O)CNC(=O)[C@H](CCC(N)=O)NC(=O)C(C)(C)NC(=O)[C@@H](N)Cc3c[nH]cn3)[C@@H](C)O)[C@@H](C)O)C(=O)N[C@@H](CCC(N)=O)C(=O)N[C@@H](C)C(=O)N[C@@H](C)C(=O)N2)[C@@H](C)CC)C(=O)N[C@@H](Cc2c[nH]c3ccccc23)C(=O)N[C@@H](CC(C)C)C(=O)N[C@@H](CC(C)C)C(=O)N[C@@H](CCC(N)=O)C(=O)N[C@H](C(N)=O)[C@@H](C)O)[C@@H](O)[C@H](O)[C@H]1O [EU-A992] | around 72 hr | 405 | 104 | 112 | 130 | 
2 | CCCCCCCCCCCCO[C@@H]1O[C@H](C(=O)NCCCC[C@H](NC(=O)[C@@H](NC(=O)[C@H](Cc2ccccc2)NC(=O)[C@H](CCC(=O)O)NC(=O)[C@@H]2CCCCNC(=O)CC[C@H](NC(=O)[C@H](CC(=O)O)NC(=O)[C@H](CC(C)C)NC(=O)[C@H](Cc3ccc(O)cc3)NC(=O)[C@H](CCCCN)NC(=O)[C@H](CO)NC(=O)[C@H](Cc3ccc(O)cc3)NC(=O)[C@H](CC(=O)O)NC(=O)[C@H](CO)NC(=O)[C@@H](NC(=O)[C@H](Cc3ccccc3)NC(=O)[C@@H](NC(=O)CNC(=O)[C@H](CCC(N)=O)NC(=O)C(C)(C)NC(=O)[C@@H](N)Cc3c[nH]cn3)[C@@H](C)O)[C@@H](C)O)C(=O)N[C@@H](CCC(N)=O)C(=O)N[C@@H](C)C(=O)N[C@@H](C)C(=O)N2)[C@@H](C)CC)C(=O)N[C@@H](Cc2c[nH]c3ccccc23)C(=O)N[C@@H](CC(C)C)C(=O)N[C@@H](CC(C)C)C(=O)N[C@@H](CCC(N)=O)C(=O)N[C@H](C(N)=O)[C@@H](C)O)[C@@H](O)[C@H](O)[C@H]1O [EU-A993] |  | 503 | 305 | 324 | 426 | 
3 | CCCCCCCCCCCCCCO[C@@H]1O[C@H](C(=O)NCCCC[C@H](NC(=O)[C@@H](NC(=O)[C@H](Cc2ccccc2)NC(=O)[C@H](CCC(=O)O)NC(=O)[C@@H]2CCCCNC(=O)CC[C@H](NC(=O)[C@H](CC(=O)O)NC(=O)[C@H](CC(C)C)NC(=O)[C@H](Cc3ccc(O)cc3)NC(=O)[C@H](CCCCN)NC(=O)[C@H](CO)NC(=O)[C@H](Cc3ccc(O)cc3)NC(=O)[C@H](CC(=O)O)NC(=O)[C@H](CO)NC(=O)[C@@H](NC(=O)[C@H](Cc3ccccc3)NC(=O)[C@@H](NC(=O)CNC(=O)[C@H](CCC(N)=O)NC(=O)C(C)(C)NC(=O)[C@@H](N)Cc3c[nH]cn3)[C@@H](C)O)[C@@H](C)O)C(=O)N[C@@H](CCC(N)=O)C(=O)N[C@@H](C)C(=O)N[C@@H](C)C(=O)N2)[C@@H](C)CC)C(=O)N[C@@H](Cc2c[nH]c3ccccc23)C(=O)N[C@@H](CC(C)C)C(=O)N[C@@H](CC(C)C)C(=O)N[C@@H](CCC(N)=O)C(=O)N[C@H](C(N)=O)[C@@H](C)O)[C@@H](O)[C@H](O)[C@H]1O [EU-A994] |  |  |  |  |  | body weight changes versus vehicle (db/db mice; db/db mice, high-dose (300 nmoles/kg) sc at 0, 7 and 24 hours, days 2 and 3): Significant body weight changes versus vehicle; glucose levels versus vehicle (db/db mice; db/db mice, high-dose (300 nmoles/kg), at 10 and 24 hr): significantly different from vehicle; food consumption versus liraglutide (db/db mice; db/db mice, high-dose (300 nmoles/kg), day 1): significantly different from liraglutide; db/db Mice-Mean Blood Glucose (mg/dL) 0 hr (db/db mice; dose 300 nmole/kg sc): 554 mg/dL; db/db Mice-Mean Blood Glucose (mg/dL) 10 hr (db/db mice; dose 300 nmole/kg sc): 242 mg/dL; db/db Mice-Mean Blood Glucose (mg/dL) 24 hr (db/db mice; dose 300 nmole/kg sc): 209 mg/dL; db/db Mice-Mean Blood Glucose (mg/dL) 48 hr (db/db mice; dose 300 nmole/kg sc): 385 mg/dL
4 | CCCCCCCCCCCCO[C@@H]1O[C@H](CO[C@H]2O[C@H](C(=O)NCCCC[C@H](NC(=O)[C@@H](NC(=O)[C@H](Cc3ccccc3)NC(=O)[C@H](CCC(=O)O)NC(=O)[C@@H]3CCCCNC(=O)CC[C@H](NC(=O)[C@H](CC(=O)O)NC(=O)[C@H](CC(C)C)NC(=O)[C@H](Cc4ccc(O)cc4)NC(=O)[C@H](CCCCN)NC(=O)[C@H](CO)NC(=O)[C@H](Cc4ccc(O)cc4)NC(=O)[C@H](CC(=O)O)NC(=O)[C@H](CO)NC(=O)[C@@H](NC(=O)[C@H](Cc4ccccc4)NC(=O)[C@@H](NC(=O)CNC(=O)[C@H](CCC(N)=O)NC(=O)C(C)(C)NC(=O)[C@@H](N)Cc4c[nH]cn4)[C@@H](C)O)[C@@H](C)O)C(=O)N[C@@H](CCC(N)=O)C(=O)N[C@@H](C)C(=O)N[C@@H](C)C(=O)N3)[C@@H](C)CC)C(=O)N[C@@H](Cc3c[nH]c4ccccc34)C(=O)N[C@@H](CC(C)C)C(=O)N[C@@H](CC(C)C)C(=O)N[C@@H](CCC(N)=O)C(=O)N[C@H](C(N)=O)[C@@H](C)O)[C@H](O)[C@H](O)[C@H]2O)[C@@H](O)[C@H](O)[C@H]1O [EU-A1023] |  | 508 | 264 | 194 | 375 | db/db Mice-Mean Blood Glucose (mg/dL) 0 hr (db/db mice; dose 50 nmole/kg sc): 507 mg/dL; db/db Mice-Mean Blood Glucose (mg/dL) 10 hr (db/db mice; dose 50 nmole/kg sc): 310 mg/dL; db/db Mice-Mean Blood Glucose (mg/dL) 24 hr (db/db mice; dose 50 nmole/kg sc): 355 mg/dL; db/db Mice-Mean Blood Glucose (mg/dL) 48 hr (db/db mice; dose 50 nmole/kg sc): 375 mg/dL
5 | CCCCCCCCCCO[C@@H]1O[C@H](C(=O)NCCCC[C@H](NC(=O)[C@@H](NC(=O)[C@H](Cc2ccccc2)NC(=O)[C@H](CCC(=O)O)NC(=O)[C@@H]2CCCCNC(=O)CC[C@H](NC(=O)[C@H](CC(=O)O)NC(=O)[C@H](CC(C)C)NC(=O)[C@H](Cc3ccc(O)cc3)NC(=O)[C@H](CCCCN)NC(=O)[C@H](CO)NC(=O)[C@H](Cc3ccc(O)cc3)NC(=O)[C@H](CC(=O)O)NC(=O)[C@H](CO)NC(=O)[C@@H](NC(=O)[C@H](Cc3ccccc3)NC(=O)[C@@H](NC(=O)CNC(=O)[C@H](CCC(N)=O)NC(=O)C(C)(C)NC(=O)[C@@H](N)Cc3c[nH]cn3)[C@@H](C)O)[C@@H](C)O)C(=O)N[C@@H](CCC(N)=O)C(=O)N[C@@H](C)C(=O)N[C@@H](C)C(=O)N2)[C@@H](C)CC)C(=O)N[C@@H](Cc2c[nH]c3ccccc23)C(=O)N[C@@H](CC(C)C)C(=O)N[C@@H](CC(C)C)C(=O)N[C@@H](CCC(N)=O)C(=O)N[C@H](C(N)=O)[C@@H](C)O)[C@@H](O)[C@H](O)[C@H]1O [EU-A1167] | around 72 hr | 379 | 171 | 117 | 113 | 
6 | CCCCCCCCCCCCCCCCO[C@@H]1O[C@H](C(=O)NCCCC[C@H](NC(=O)[C@H](C)NC(=O)[C@H](C)NC(=O)[C@H](CCC(N)=O)NC(=O)[C@H](CO)NC(=O)[C@H](CC(=O)O)NC(=O)[C@@H]2CCCCNC(=O)CC[C@H](NC(=O)[C@H](CC(=O)O)NC(=O)[C@H](CO)NC(=O)[C@@H](NC(=O)[C@H](Cc3ccccc3)NC(=O)[C@@H](NC(=O)CNC(=O)[C@H](CCC(N)=O)NC(=O)C(C)(C)NC(=O)[C@@H](N)Cc3c[nH]cn3)[C@@H](C)O)[C@@H](C)O)C(=O)N[C@@H](CO)C(=O)N[C@@H](CCCCN)C(=O)N[C@@H](Cc3ccc(O)cc3)C(=O)N2)C(=O)N[C@@H](CCC(=O)O)C(=O)N[C@@H](Cc2ccccc2)C(=O)N[C@H](C(=O)N[C@@H](CCC(=O)O)C(=O)N[C@@H](Cc2c[nH]c3ccccc23)C(=O)N[C@@H](CC(C)C)C(=O)N[C@@H](CC(C)C)C(=O)N[C@@H](CCC(N)=O)C(=O)N[C@H](C(N)=O)[C@@H](C)O)[C@@H](C)CC)[C@@H](O)[C@H](O)[C@H]1O [EU-A1848] (H-H[Aib]QGTFTSDESKYKDSQAAK(βGlcA(1-O-hexadecyl))EFIEWLLQT-NH2; lactam 10-14; N-terminus assumed) |  |  |  |  |  | EC50 (human GLP-1 receptor): 0.06 nM; EC50 (human glucagon receptor): 3.06 nM

From patent US11541028B2, “Peptide pharmaceuticals for treatment of NASH and other disorders” (Mederis Diabetes LLC, priority 2018, dated 2023)
